In brackets after ≈: the same amount, converted by molar mass. Structures can show the parent of a compound that is named as a salt. One block for each molecule: values may come before it.
Assays:
[1] = Approximate solubility in water; type: physicochemical
Experimental: The limit value of completely dissolved amount was determined. Determination of solubilities below 20 mg/l occurred with stirring suspensions in water, filtering off the excess, and measuring of the amount of substance in the filtrate.

[2] = Storage stability of the crystalline salt (HPLC area, Raman, appearance); type: physicochemical; conditions: for Storage stability (general statement): crystalline forms disclosed; for HPLC area reference value: reference value against which the HPLC area after 1 week at 60° C./75% r.h. is compared
Experimental: FT-Raman Spectroscopy: Bruker RFS100. Nd:YAG 1064 nm excitation, 100 mW laser power, Ge-detector, 64 scans, range 25-3500 cm^−1, […].
HPLC: HPLC measurement were carried out with a HP LC1090M, Column Symmetry C18, 3.0·150 mm.

[3] = stored 1 week at 60° C. and about 75% r.h. in an open container
[4] = approximate, double distilled water added stepwise to 5 mg substance, sonification
[5] = storage for 1 week at 100° C. in a closed ampoule
[6] = stored 1 week at 60° C. and about 75% r.h. in a closed container

Solubility in water [1, 4]: > 500 mg/mL | HPLC area reference value [2]: 99.4% | Changes on storage detected with Raman spectroscopy ([2]; storage at 75% r.h. in an open container): changes of the substance after 3 days | HPLC area after storage [2, 3]: 96.7% | State of crystalline powder after storage [2, 3]: substantially unchanged
SMILES: CC(C)COc1ccc(CNC(=O)N(Cc2ccc(F)cc2)C2CCN(C)CC2)cc1.O=C(O)/C=C/C(=O)O [Example 3, N-(4-fluorobenzyl)-N-(1-methylpiperidin-4-yl)-N′-(4-(2-methylpropyloxy)phenylmethyl)carbamide fumarate]

Solubility in water [1, 4]: > 500 mg/mL
SMILES: CC(C)COc1ccc(CNC(=O)N(Cc2ccc(F)cc2)C2CCN(C)CC2)cc1 [Example 7, N-(4-fluorobenzyl)-N-(1-methylpiperidin-4-yl)-N′-(4-(2-methylpropyloxy)phenylmethyl)carbamide succinate]

Solubility in water [1, 4]: 4 mg/mL (≈ 9.36 mM) | Storage stability (general statement) [2]: good storage stability | HPLC area reference value [2]: 96.8% | HPLC area after storage [2, 5]: 97.4% | State of crystalline product after storage [2, 5]: does not decompose | HPLC area after storage [2, 6]: 97.4% | State of crystalline powder after storage [2, 6]: remains a white powder
SMILES: CC(C)COc1ccc(CNC(=O)N(Cc2ccc(F)cc2)C2CCN(C)CC2)cc1 [Example 9, N-(4-fluorobenzyl)-N-(1-methylpiperidin-4-yl)-N′-(4-(2-methylpropyloxy)phenylmethyl)carbamide edisylate]

Second part, the molecule before the results:

SMILES: CC(C)COc1ccc(CNC(=O)N(Cc2ccc(F)cc2)C2CCN(C)CC2)cc1 [Example 2, N-(4-fluorobenzyl)-N-(1-methylpiperidin-4-yl)-N′-(4-(2-methylpropyloxy)phenylmethyl)carbamide citrate]
Solubility in aqueous systems (general statement) ([1]; aqueous systems): very soluble | solubility at 2 min ([1]; thermodynamic from solid, approximate, double distilled water added stepwise to 5 mg substance, sonification): ~14 mg/mL | Storage stability (general statement) [2]: good storage stability | HPLC area reference value [2]: 99.9% | HPLC area after storage [2, 3]: 99.4% | State of crystalline powder after storage [2, 3]: substantially unchanged

SMILES: CC(C)COc1ccc(CNC(=O)N(Cc2ccc(F)cc2)C2CCN(C)CC2)cc1 [Example 4, N-(4-fluorobenzyl)-N-(1-methylpiperidin-4-yl)-N′-(4-(2-methylpropyloxy)phenylmethyl)carbamide maleate]
Solubility in water [1, 4]: > 500 mg/mL

SMILES: CC(C)COc1ccc(CNC(=O)N(Cc2ccc(F)cc2)C2CCN(C)CC2)cc1 [Example 5, N-(4-fluorobenzyl)-N-(1-methylpiperidin-4-yl)-N′-(4-(2-methylpropyloxy)phenylmethyl)carbamide malate]
Solubility in water [1, 4]: > 500 mg/mL

SMILES: CC(C)COc1ccc(CNC(=O)N(Cc2ccc(F)cc2)C2CCN(C)CC2)cc1 [Example 6, N-(4-fluorobenzyl)-N-(1-methylpiperidin-4-yl)-N′-(4-(2-methylpropyloxy)phenylmethyl)carbamide phosphate]
Solubility in water [1, 4]: > 250 mg/mL

Source: patent US7868176B2, “Salts of N-(4-fluorobenzyl)-N-(1-methylpiperidin-4-y1)-N′-(4-(2-methylpropyloxy)phenylmethyl)carbamide and their preparation” (ACADIA Pharmaceuticals, Inc., priority 2004, dated 2011)
